This note sets out measurements from patent US5607970A, “ACAT inhibitory agent” (priority 1991, dated 1997).

The target in assay [1] is T1, ACAT (AcylCoA-Cholesterolacyltransferase) (Oryctolagus cuniculus, UniProt G1SFD9).
T1 construct: from tissue; host or cells: rabbit small intestine epithelium, microsome fraction
T1 sequence (G1SFD9 1-524): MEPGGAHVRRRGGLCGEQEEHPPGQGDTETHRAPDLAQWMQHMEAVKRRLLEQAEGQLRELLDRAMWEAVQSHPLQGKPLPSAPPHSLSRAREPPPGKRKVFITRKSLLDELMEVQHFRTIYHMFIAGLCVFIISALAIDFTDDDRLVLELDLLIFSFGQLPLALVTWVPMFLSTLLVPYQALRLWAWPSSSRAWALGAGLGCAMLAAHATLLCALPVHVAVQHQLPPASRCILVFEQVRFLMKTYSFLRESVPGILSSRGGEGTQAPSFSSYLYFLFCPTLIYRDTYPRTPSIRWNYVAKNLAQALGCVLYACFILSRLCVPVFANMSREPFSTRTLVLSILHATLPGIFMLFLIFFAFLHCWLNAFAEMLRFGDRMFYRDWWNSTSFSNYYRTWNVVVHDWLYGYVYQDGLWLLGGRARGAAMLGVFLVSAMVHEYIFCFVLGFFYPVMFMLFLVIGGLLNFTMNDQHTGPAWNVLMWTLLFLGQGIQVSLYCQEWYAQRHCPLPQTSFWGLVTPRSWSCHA
Kind of assay: ACAT inhibitory activity in test tube (method of Heider et al., [1-14C]oleylCoA, small intestine epithelium microsome fraction). It is filed as biochemical, rabbit. The conditions noted are these: read-out: Inhibitory Ratio (%). As to the method:
That is, a rabbit is fed a 1% cholesterol diet for 3 weeks followed by dissection and extraction of the small intestine. After peeling off the small intestine epithelium and crushing with a homogenizer, incompletely crushed solids are removed by centrifugal separation. […] After allowing the reaction to proceed for the prescribed amount of time, 7 ml of a mixture of dichloromethane: methanol (2:1) is added to the reaction mixture and thoroughly mixed. The reaction, is stopped and the dichloromethane layer is removed, after which the cholesterol oleate portion is separated from that fraction by silica gel TLC (developing solution: petroleum ether:diethyl ether=95:5). The separated portion is scraped off and the radioactivity is measured using a liquid scintillation counter to calculate ACAT activity.

The test system of assay [2] is ACAT activity of small intestine epithelial cells. Kind of assay: Animal test: ACAT activity of small intestine epithelial cells after administration in feed. The format is in vivo. The conditions noted are these: male hamsters, 1 mg/animal/day mixed in feed. As to the method:
A test substance according to the present invention was administered to hamsters (males, body weight: 100 g) at a dose of 1 mg/animal/day by mixing in the same to their feed. The ACAT activity of small intestine epithelial cells was then measured after one week and after two weeks.

Where [3] appears, read: Concentration 20 μg/ml, rabbit small intestine microsome ACAT.
The mark [4] stands for this setting: Concentration 50 μg/ml, rabbit small intestine microsome ACAT.
Setting [5] is: Concentration 100 μg/ml, rabbit small intestine microsome ACAT.
Setting [6] is: Concentration 150 μg/ml, rabbit small intestine microsome ACAT.
Setting [7] is: Concentration 200 μg/ml, rabbit small intestine microsome ACAT.

Read-outs that look alike come from different tables or passages of the source.

With `CCCCC/C=C\C/C=C\CCCCCCCC(=O)OCC(O)CO` (stereo not shown), the inhibition at 20 µg/mL in assay [1] (setting [3]) came out at 28%. In addition, the inhibition at 50 µg/mL in assay [1] (setting [4]) is 54%. In assay [1] (setting [5]), the inhibition at 100 µg/mL was 74%. Moreover, the inhibition at 150 µg/mL in assay [1] (setting [6]) was 86%. Also, in assay [1] (setting [7]), the inhibition at 200 µg/mL was 93%. Further, in assay [2], the “ACAT Inhibitory Ratio (%) After 1 week” value was determined as 59% and the “ACAT Inhibitory Ratio (%) After 2 weeks” value was 53%.

Consider `CCCCCCCC/C=C\CCCCCCCC(=O)OCC(O)CO` (stereo not shown), for which, in assay [1], the inhibition at 20 µg/mL is 30%, the inhibition at 50 µg/mL stood at 59%, the inhibition at 100 µg/mL was found to be 81% and the inhibition at 150 µg/mL was 92%. Also, the inhibition at 200 µg/mL in assay [1] is 100%. Besides, in assay [2], the “ACAT Inhibitory Ratio (%) After 1 week” value came to 60% and the “ACAT Inhibitory Ratio (%) After 2 weeks” value is given as 52%.

With `CCCCCCCC/C=C\CCCCCCCC(=O)OC(CO)CO`, in assay [1], the inhibition at 20 µg/mL is 32%, the inhibition at 50 µg/mL turned out to be 62%, the inhibition at 100 µg/mL was 82% and the inhibition at 150 µg/mL came to 94%. Besides, the inhibition at 200 µg/mL in assay [1] is 100%. Also, in assay [2], the “ACAT Inhibitory Ratio (%) After 1 week” value worked out at 64% and the “ACAT Inhibitory Ratio (%) After 2 weeks” value is 56%.

With `CC/C=C\C/C=C\C/C=C\CCCCCCCC(=O)OCC(O)CO` (stereo not shown) [1-linolenoylglycerol], in assay [1], the inhibition at 20 µg/mL was found to be 25%, the inhibition at 50 µg/mL is 50%, the inhibition at 100 µg/mL was determined as 76% and the inhibition at 150 µg/mL stood at 86%. The inhibition at 200 µg/mL in assay [1] was found to be 92%. Besides, in assay [2], the “ACAT Inhibitory Ratio (%) After 1 week” value came to 57% and the “ACAT Inhibitory Ratio (%) After 2 weeks” value turned out to be 51%.

Regarding `CCCCCC/C=C\CCCCCCCC(=O)OCC(O)CO` (stereo not shown) [1-palmitooleylglycerol], the inhibition at 20 µg/mL in assay [1] (setting [3]) was 24%. The inhibition at 50 µg/mL in assay [1] (setting [4]) turned out to be 53%. Moreover, the inhibition at 100 µg/mL in assay [1] (setting [5]) amounted to 72%. Moreover, the inhibition at 150 µg/mL in assay [1] (setting [6]) stood at 84%. The inhibition at 200 µg/mL in assay [1] (setting [7]) amounted to 91%. Besides, in assay [2], the “ACAT Inhibitory Ratio (%) After 1 week” value came to 57% and the “ACAT Inhibitory Ratio (%) After 2 weeks” value came to 54%.

Consider `CCCCCCCCCCCCCCCC(=O)OCC(O)CO` (stereo not shown) [1-palmitoylglycerol], for which the inhibition at 20 µg/mL in assay [1] (setting [3]) amounted to 26%. Moreover, in assay [1] (setting [4]), the inhibition at 50 µg/mL amounted to 56%. Besides, in assay [1] (setting [5]), the inhibition at 100 µg/mL was 75%. For the same molecule, the inhibition at 150 µg/mL in assay [1] (setting [6]) turned out to be 86%. Besides, the inhibition at 200 µg/mL in assay [1] (setting [7]) was 94%. For the same molecule, in assay [2], the “ACAT Inhibitory Ratio (%) After 1 week” value stood at 56% and the “ACAT Inhibitory Ratio (%) After 2 weeks” value turned out to be 50%.

As to `CCCCCCCCCCCCCCCCCC(=O)OCC(O)CO` (stereo not shown) [1-stearoylglycerol], in assay [1], the inhibition at 20 µg/mL was 15%, the inhibition at 50 µg/mL was 29%, the inhibition at 100 µg/mL was found to be 38% and the inhibition at 150 µg/mL was 45%. For the same molecule, the inhibition at 200 µg/mL in assay [1] turned out to be 49%. Further, in assay [2], the “ACAT Inhibitory Ratio (%) After 1 week” value is 31% and the “ACAT Inhibitory Ratio (%) After 2 weeks” value is reported as 29%.
